For assay [1], the system named is Chinese hamster V79-379 lung fibroblasts. Nature of the assay: Clonogenic cell survival of V79 cells after photodynamic treatment. In kind it is cell-based. To be noted: for LD 90 (light dosage that kills 90% of cells): 18 hours, 675 nm red light; for CF10(AIPcCI)/CF10 (Pc): CF10 = product of intracellular concentration and fluence reducing survival to 10%; for F10(AIPcCI)/F10 (Pc): F10 = fluence reducing cell survival to 10%. The essentials: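 V79 cells exposed to 0.5 or 1.0 μM phthalocyanine, then irradiated about 18 h later with increasing fluences of broad-band red light (600 nm high-pass filter). Survival scored as colonies of ≥50 cells. F10 taken from survival curves; CF10 from survival against intracellular concentration × fluence; 1 μM AlPcCl run as reference.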

For assay [2], the system named is Mouse lymphoma L5178y-R cells. Nature of the assay: Clonogenic cell survival of PDT-treated LY-R cells. The class given is cell-based. To be noted: 0.5 μM; for activity relative to PcXII: from LD50/LD90 fluences. The procedure: Mouse lymphoma L5178y-R (hereinafter also referred to as “LY-R”) cells were grown in suspension culture as described in Ramakrishnan N., Oleinick, N. L. Clay, M. E., Homg, M. F., Antunez, A. R., and Evans H. H., Photochem. Photobiol. 50, 373-378, 1989 and Agarwal, M. L., Clay, M. E., Harvey, E. J., Evans, H. H., Antunez, A. R., and Oleinick, N. L., Cancer Res., 51, 5993-5996, 1991.
The cells were used while in exponential growth. Stock solutions of either 0.5 or 1 mM of PcIV, PcXII, PcX, PcXVIII were prepared in dimethylformamide unless otherwise indicated and added to the 10 mL medium at a rate of 1 μL per mL. After allowing 18 hours for uptake of the phthalocyanine into the cells, the flasks containing the cultures were placed on a glass exposure tray above a 500-W tungsten-halogen lamp. The exposure tray was fitted with a 600-nm high-pass filter. Flasks were exposed to various fluences of red light (up to 30 kJ/m^2) at a fluence rate of approximately 74 W/m^2). After irradiation, the cells were collected by centrifugation.
For measurement of clonogenic cell survival, aliquots were plated in medium containing soft agar as described in Ramakrishnan N., Oleinick, N. L. Clay, M. E., Homg, M. F., Antunez, A. R., and Evans H. H., Photochem. Photobiol. 50, 373-378, 1989. The aliquots were plated in sufficient numbers to produce 50-200 colonies. The dishes were kept in an incubator at 37° C. in an atmosphere of 5% CO2 and 95% air for 10-14 days to allow viable cells to form colonies. Colonies were counted by eye. Controls treated with the phthalocyanine alone had plating efficiencies of about […]. The plating efficiencies of the treated cells are normalized to the plating efficiencies of control cells in each experiment. For measurement of the induction of apoptosis, DNA was isolated from the treated and control cells 2 hours after photodynamic therapy, subjected to electrophoresis on 1.5% agarose, stained with ethidium bromide, and visualized by UV transillumination, as described in Agarwal et al. The results are shown in Tables 4, 5 and 6 and in FIG. 3.

Setting [3] is: 0.5 μM, VII# preplated data only, XXI* not totally soluble at 0.5 mM.

For the compound `CN(C)CCC[Si](C)(C)O[Si]1(O)n2c3c4ccccc4c2N=C2N=C(N=c4c5ccccc5c(n41)=NC1=NC(=N3)c3ccccc31)c1ccccc12` (stereo not drawn) [Compound IV, HOSiPcOSi(CH3)2(CH2)3N(CH3)2], the “LD 90 (light dosage that kills 90% of cells)” value in assay [1] (setting [3]) was 4 kj/m^2. Further, the “CF10(AIPcCI)/CF10 (Pc)” value in assay [1] (0.5 μM) was 3.9; in assay [1] (1.0 μM), 3.5. Besides, the “F10(AIPcCI)/F10 (Pc)” value in assay [1] (0.5 μM) stood at 1.85; in assay [1] (1.0 μM), 4.25. The “Ld50 (fluence that reduces cell survival to 50%)” value in assay [2] was 1.38 kJ/m^2. In addition, the “Ld90 (fluence that reduces cell survival to 10%)” value in assay [2] amounted to 2.15 kJ/m^2. Also, the “activity relative to PcXII” value in assay [2] is “about 80%”. Also, the “normalized plating efficiency, AVG.” value is listed as 100 in assay [2] (light dose 0 kJ/m^2); 80.9 in assay [2] (light dose 1 kJ/m^2); 19.7 in assay [2] (light dose 2 kJ/m^2); 0.82 in assay [2] (light dose 2.5 kJ/m^2); 0.16 in assay [2] (light dose 3 kJ/m^2); 0.014 in assay [2] (light dose 5 kJ/m^2).

For the compound `CCN(CCC[Si](C)(C)O[Si]1(O[Si](C)(C)CCCN(CC)CCN(C)C)n2c3c4ccccc4c2N=C2N=C(N=c4c5ccccc5c(n41)=NC1=NC(=N3)c3ccccc31)c1ccccc12)CCN(C)C` [Compound XVIII, SiPc[OSi(CH3)2(CH2)3N(CH2CH3)(CH2)2N(CH3)2]2], in assay [1] (1 μM), the “LD 90 (light dosage that kills 90% of cells)” value is 7 kj/m^2. Moreover, the “Ld50 (fluence that reduces cell survival to 50%)” value in assay [2] came out at 5.00 kJ/m^2. Moreover, in assay [2], the “Ld90 (fluence that reduces cell survival to 10%)” value worked out at 7.81 kJ/m^2. Besides, the “activity relative to PcXII” value in assay [2] was 22%. Besides, the “normalized plating efficiency, AVG.” value in assay [2] (light dose 0 kJ/m^2) is 100; in assay [2] (light dose 2 kJ/m^2), 81.8; in assay [2] (light dose 3 kJ/m^2) it was 73.6; in assay [2] (light dose 4 kJ/m^2), 64.0; in assay [2] (light dose 5 kJ/m^2), 52.1; in assay [2] (light dose 6 kJ/m^2) it was 33.8. Also, the “normalized plating efficiency, AVG.” value in assay [2] (light dose 8 kJ/m^2) was determined as 9.13; in assay [2] (light dose 10 kJ/m^2), 3.0.

As to `CN(C)CCC[Si](C)(C)O[Si]1(O[Si](C)(C)CCCN(C)C)n2c3c4ccccc4c2N=C2N=C(N=c4c5ccccc5c(n41)=NC1=NC(=N3)c3ccccc31)c1ccccc12` [Compound XII, SiPc[OSi(CH3)2(CH2)3N(CH3)2]2], the “LD 90 (light dosage that kills 90% of cells)” value in assay [1] (setting [3]) was 3.3 kj/m^2. Besides, in assay [2], the “Ld50 (fluence that reduces cell survival to 50%)” value amounted to 1.11 kJ/m^2. In addition, the “Ld90 (fluence that reduces cell survival to 10%)” value in assay [2] is recorded as 1.70 kJ/m^2. Further, the “normalized plating efficiency, AVG.” value in assay [2] (light dose 0 kJ/m^2) came out at 100; in assay [2] (light dose 1 kJ/m^2), 82.2; in assay [2] (light dose 2 kJ/m^2), 5.23; in assay [2] (light dose 2.5 kJ/m^2), 0.90; in assay [2] (light dose 3 kJ/m^2) it was 0.15; in assay [2] (light dose 4 kJ/m^2), 0.014. For the same compound, the “normalized plating efficiency, AVG.” value in assay [2] (light dose 5 kJ/m^2) was found to be 0.0027.

(Values after patent US8211883B2, “Topical delivery of phthalocyanines” (priority 2004, dated 2012).)
